Measurements reported in patent US20060058320A1, “[1,2,4] Triazolo[1,5-c]pyrimidine derivatives” (KYOWA HAKKO KOGYO CO., LTD., priority 2002, published 2006).
Counter-ions that a name gives are not always drawn. Like-named read-outs stand apart in the source and are kept apart here.

Key:
[1] = tested on: CGS 21680-induced catalepsy; assay: Activity on CGS 21680-induced catalepsy; assay type: in vivo, mice; settings: for Number of animals showing remission: cases with catalepsy score of 4 points or less in 10 cases; for Total score: total catalepsy score of 10 mice (maximum 50 points; 40 points or less = positive), one hour after administration; for inhibition in vivo at 10 mg/kg: Mus musculus, po, read-out: Remission ratio (%)
Protocol: Parkinson's disease is a motor disorder based on degeneration and cell death of the nigrostriatal dopaminergic neurons. When CGS 21680 (adenosine A2A receptor agonist) is administered into the intracerebral ventricle, the inhibitory synaptic transmission of GABA in the medium sized spiny neurons in the corpus striatum is inhibited directly via the adenosine A2A receptor [Journal of Neuroscience, vol. 16, p. 605 (1996)]. Accordingly, it is concidered that the adenosine A2A receptor agonists positively regulate the output of the GABAergic neurons from the corpus striatum to the globus pallidus lateralis, and, as a result, catalepsy is induced by the administration of CGS 21680.
The test was carried out using ten 5-week age male ddY mice (22-25 g in body weight, Japan SLC) per group. CGS 21680 (produced by RBI Co) was dissolved in physiological saline (produced by Otsuka Pharmaceutical Co., Ltd.), and 10 μg/20 μL of the solution was injected into mouse intracerebral ventricle. Each test compound was used by suspending it in distilled water containing 0.3% of polyoxylene (20) sorbitan monooleate (referred to as “Tween 80” hereinafter) (produced by Otsuka Pharmaceutical Co., Ltd.). The suspension containing each test compound or a solution containing no test Compound (distilled water containing 0.3% of Tween 80; used as a control) was orally administered (0.1 mL per 10 g of mouse body weight) 30 minutes before the injection of CGS 21680 into the intracerebral ventricle. One hour after the administration of the each test compound, only forelimbs or only hindlimbs of each mouse were laid on a vertically arranged stand made of acryl and having a size of 4.5 cm in height and 1.0 cm in width to measure catalepsy symptoms. All of the test compounds were administered orally in a dose of 10 mg/kg.
The criteria of the catalepsy score are shown below.
The effect was decided by a total catalepsy score of 10 mice in one group (the maximum score: 50 points). When the total score was 40 points or less, the activity of the compounds was decided positive. The number of the animals showing remission of catalepsy was expressed by the number of cases showing a catalepsy score of 4 points or less in 10 cases. The catalepsy remission ratio was expressed as the percentage of the total score in the test compound-administered group to the total score in the control group.

[2] = from total score of test group and control group, 10 mg/kg orally

| SMILES | melting point | also measured |
| --- | --- | --- |
| Nc1nc(-c2ccc(CNCCCN3CCCC3=O)cc2)cc2nc(-c3ccco3)nn12 (as salt: hydrochloride) [Compound 14, 5-Amino-2-(2-furyl)-7-{4-[3-(2-oxopyrrolidin-1-yl)propylaminomethyl]phenyl}[1,2,4]triazolo[1,5-c]pyrimidine monohydrochloride] | 269.2 to 269.8 °C |  |
| CC(C)(O)CN1CC=C(c2cc3nc(-c4ccco4)nn3c(N)n2)CC1 | 197.8 to 198.1 °C |  |
| COc1ccc(CNCc2ccccc2-c2cc3nc(-c4ccco4)nn3c(N)n2)cc1OC [Compound 3, 5-Amino-7-[2-(3,4-dimethoxybenzylaminomethyl)phenyl]-2-(2-furyl) [1,2,4]triazolo[1,5-c]pyrimidine] | 168 to 168.7 °C |  |
| Nc1nc(-c2ccc(C=O)cc2)cc2nc(-c3ccco3)nn12 [Compound 10, 5-Amino-7-(4-formylphenyl)-2-(2-furyl)[1,2,4]triazolo[1,5-c]pyrimidine] | 273.5 to 274 °C |  |
| Nc1nc(COc2cccnc2)cc2nc(-c3ccco3)nn12 [Compound 31, 5-Amino-2-(2-furyl)-7-(pyridin-3-yloxymethyl)[1,2,4]triazolo[1,5-c]pyrimidine] | 253.5 to 254 °C |  |
| COCc1cc2nc(-c3ccco3)nn2c(N)n1 [Compound 23, 5-Amino-2-(2-furyl)-7-methoxymethyl[1,2,4]triazolo[1,5-c]pyrimidine] | 167.2 to 167.6 °C |  |
| Nc1nc(C2=CCN(CC3CC3)CC2)cc2nc(-c3ccco3)nn12 | 196.9 to 197.4 °C |  |
| CCN1CCN(Cc2ccc(-c3cc4nc(-c5ccco5)nn4c(N)n3)cc2)CC1 (as salt: hydrochloride) | 265 °C (dec.) |  |
| Nc1nc(C(=O)NCC2CCCCC2)cc2nc(-c3ccco3)nn12 | 273.5 to 274 °C |  |
| CCN1CCN(Cc2ccccc2-c2cc3nc(-c4ccco4)nn3c(N)n2)CC1 (as salt: hydrochloride) | 253 to 253.4 °C |  |
| COc1ccc(CNCc2ccc(-c3cc4nc(-c5ccco5)nn4c(N)n3)cc2)cc1OC (as salt: hydrochloride) | 256.2 to 256.8 °C |  |
| Nc1nc(COc2ccncc2)cc2nc(-c3ccco3)nn12 [Compound 33, 5-Amino-2-(2-furyl)-7-(pyridin-4-yloxymethyl)[1,2,4]-triazolo[1,5-c]pyrimidine] | > 300 °C |  |
| Nc1nc(COc2ccccc2F)cc2nc(-c3ccco3)nn12 [Compound 30, 5-Amino-7-(2-fluorophenoxymethyl)-2-(2-furyl) [1,2,4]-triazolo[1,5-c]pyrimidine] | 196.8 to 197.1 °C |  |
| CC(C)N(Cc1ccccc1)C(=O)c1cc2nc(-c3ccco3)nn2c(N)n1 [Compound 100, 5-Amino-2-(2-furyl)[1,2,4]triazolo[1,5-c]pyrimidine-7-carboxylic acid (N-benzyl-N-isopropyl)amide] |  | Number of animals showing remission ([1]; 10 mg/kg orally): 8; Remission ratio (%) [1, 2]: 64%; Total score ([1]; 10 mg/kg orally): 15 |
| COc1ccc(CN(C)Cc2cc3nc(-c4ccco4)nn3c(N)n2)cc1OC [Compound 35, 5-Amino-7-[(N-methyl-3,4-dimethoxybenzylamino)methyl]-2-(2-furyl)[1,2,4]triazolo[1,5-c]pyrimidine monohydrochloride] |  | inhibition in vivo at 10 mg/kg [1]: 90%; Total score ([1]; 10 mg/kg orally): 5 |
| CN(Cc1cccnc1)C(=O)c1cc2nc(-c3ccco3)nn2c(N)n1 [Compound 105, 5-Amino-2-(2-furyl)[1,2,4]triazolo[1,5-c]pyrimidine-7-carboxylic acid [N-methyl-N-(3-pyridylmethyl)]amide] |  | inhibition in vivo at 10 mg/kg [1, 2]: 82%; Total score ([1]; 10 mg/kg orally): 9 |
| CC(C)(O)c1ccccc1OCc1cc2nc(-c3ccco3)nn2c(N)n1 [Compound 29, 5-Amino-7-[2-(1-hydroxy-1-methylethyl)phenoxymethyl]-2-(2-furyl)[1,2,4]triazolo[1,5-c]pyrimidine] |  | inhibition in vivo at 10 mg/kg [1, 2]: 88%; Total score ([1]; 10 mg/kg orally): 6 |
| COC[C@H]1CCCN1C(=O)c1cc2nc(-c3ccco3)nn2c(N)n1 [Compound 149, (2R)-(2-Methoxymethyl)pyrrolidinyl 5-amino-2-(2-furyl)-7-[1,2,4]triazolo[1,5-c]pyrimidin-7-yl ketone] |  | Number of animals showing remission ([1]; 10 mg/kg orally): 7; Remission ratio (%) [1, 2]: 70%; Total score ([1]; 10 mg/kg orally): 15 |
| CCOC1(c2cc3nc(-c4ccco4)nn3c(N)n2)CC1 [Compound 26, 5-Amino-7-(1-ethoxycyclopropyl)-2-(2-furyl)[1,2,4]triazolo [1,5-c]pyrimidine] |  | inhibition in vivo at 10 mg/kg [1, 2]: 82%; Total score ([1]; 10 mg/kg orally): 9 |

Now from value to compound, other results behind:

| melting point | SMILES | also measured |
| --- | --- | --- |
| 190.5 to 190.9 °C | CC(=O)NCCNCc1cc2nc(-c3ccco3)nn2c(N)n1 [Compound 45, 5-Amino-7-[2-(N-acetylamino)ethylaminomethyl]-2-(2-furyl)-[1,2,4]triazolo[1,5-c]pyrimidine] |  |
| 178.5 to 178.9 °C | CCNC(=O)c1cc2nc(-c3ccco3)nn2c(N)n1 [Compound 98, 5-Amino-2-(2-furyl)[1,2,4]triazolo[1,5-c]pyrimidine-7-carboxylic acid ethylamide] |  |
| 270 °C (dec.) | Nc1nc(CN2CCN(CC3CC3)CC2)cc2nc(-c3ccco3)nn12 (as salt: hydrochloride) [Compound 50, 5-Amino-7-[4-(cyclopropylmethyl)piperazin-1-ylmethyl]-2-(2-furyl)[1,2,4]triazolo[1,5-c]pyrimidine dihydrochloride] |  |
| 271 °C (dec.) | Nc1nc(-c2cncnc2)cc2nc(-c3ccco3)nn12 [Compound 56, 5-Amino-2-(2-furyl)-7-(5-pyrimidinyl)[1,2,4]triazolo[1,5-c]-pyrimidine] |  |
| 241.2 to 241.5 °C | COc1ccc(CNCc2cc3nc(-c4ccco4)nn3c(N)n2)cc1OC (as salt: hydrochloride) [Compound 42, 5-Amino-7-(3,4-dimethoxybenzylaminomethyl)-2-(2-furyl)-[1,2,4]triazolo[1,5-c]pyrimidine dihydrochloride] |  |
| 262 to 262.4 °C | CCN1CCN(Cc2cc3nc(-c4ccco4)nn3c(N)n2)CC1 (as salt: hydrochloride) [Compound 48, 5-Amino-7-(4-ethylpiperazin-1-ylmethyl)-2-(2-furyl)[1,2,4]-triazolo[1,5-c]pyrimidine trihydrochloride] |  |
| 254.5 to 254.9 °C | Nc1nc(C(=O)NCc2ccc(F)c(F)c2)cc2nc(-c3ccco3)nn12 [Compound 82, 5-Amino-2-(2-furyl)[1,2,4]triazolo[1,5-c]pyrimidine-7-carboxylic acid (3,4-difluorobenzyl)amide] |  |
| 238.5 to 238.7 °C | COc1cc(CNCc2cc3nc(-c4ccco4)nn3c(N)n2)cc(OC)c1 (as salt: hydrochloride) [Compound 43, 5-Amino-7-[(3,5-dimethoxybenzylamino)methyl]-2-(2-furyl)-[1,2,4]triazolo[1,5-c]pyrimidine dihydrochloride] |  |
| 263.5 to 264.2 °C | Nc1nc(/C=C/CNCC2CC2)cc2nc(-c3ccco3)nn12 (as salt: HCl) [Compound 68, 5-Amino-7-[3-(cyclopropylmethylamino)-(E)-propan-1-en-1-yl]-2-(2-furyl)[1,2,4]triazolo[1,5-c]pyrimidine] |  |
| 274.7 to 275 °C (dec.) | Nc1nc(-c2csc(NCCN3CCOCC3)n2)cc2nc(-c3ccco3)nn12 [Compound 59, 5-Amino-2-(2-furyl)-7-[2-(2-morpholinoethylamino)thiazol-4-yl][1,2,4]triazolo[1,5-c]pyrimidine] |  |
